From patent publication US8178540B2 (priority 2006, dated 2012)

Assays:
[1] = system: tobacco budworm (Heliothis virescens); details: 2500 ppm; eggs sprayed, 6 days
Sphaerotheca fuliginea = experiment: Use Example 8: protective action on cucumber leaves; assay type: in vivo; details: 250 ppm (printed for RC 3 only); cucumber seedlings sprayed 1 day before inoculation; after seven days; untreated plants 90% infected
Description: After inoculation, the trial plants were transferred to a green house.

Alternaria solani = experiment: Use Example 2: early blight of tomato, greenhouse, spores in 2% biomalt; assay type: in vivo; details: 250 ppm; tomato plants sprayed 1 day before inoculation; assessed after 5 days; untreated plants 90% infected
Method: The next day, the treated plants were inoculated with a spore suspension of Alternaria solani which contained 0.17×10^6 spores/ml in a 2% aqueous biomalt solution. The test plants were then placed in a water vapor-saturated chamber at temperatures of from 20 to 22° C. After 5 days the disease on the untreated infected control plants had developed to such an extent that the infection of all plants could be determined visually in %.

Phytophthora infestans = assay type: in vivo; details: 250 ppm; tomato plants, sprayed 1 day before inoculation; after six days; untreated plants 90% infected

| Compound | infection (% diseased leaf area) (Sphaerotheca fuliginea) | infection (Alternaria solani) | further results |
| --- | --- | --- | --- |
| O=S(=O)(NCc1ccncn1)c1ccc(-c2ccc(Cl)cc2Cl)cc1 [Example 54] |  |  | mortality [1]: at least 75% |
| COc1nccc(CNS(=O)(=O)c2ccc(-c3ccc(Cl)cc3)cc2)n1 [Example 88] | no infection |  |  |
| O=S(=O)(NCc1ccncn1)c1ccc(Oc2ccc(Cl)cc2)cc1 [Example 199] |  | less than or equal to 5% |  |
| O=S(=O)(NCc1ccncc1)c1ccc(Oc2ccc(Cl)cc2)cc1 [RC 1] |  | 40% |  |
| O=S(=O)(NCc1ccncc1)c1ccc(-c2ccc(Cl)cc2)cc1 [RC 2] |  |  | infection (% diseased leaf area) (Phytophthora infestans): 90% |
| COc1cc(CNS(=O)(=O)c2ccc(-c3ccc(Cl)cc3)cc2)ccn1 [RC 3] | 90% |  |  |
